These results are taken from patent US20260262647A1, “Synergistic Compositions Containing Guanidine” (Thor GmbH, priority 2023, published 2026).

Holding throughout (type): cell-based
Assay [1] relates to yeast mixture. The assay can be described thus: Laundry detergent inoculated once with yeast mixture, semiquantitative growth evaluation. Also noted: key: 0: No growth; Minimal growth, 1 to 10 colonies visible over the entire streak; 2: Light growth, maximum 100 colonies; Moderate growth, maximum 300 to 400 colonies; Uniform growth, >400 colonies, single colonies still clearly recognizable; 5: Heavy growth, too many colonies to count, but no growth over the entire streak; 6: Full growth, barely any single colonies still apparent, growth over the entire streak. As to conditions: Example 37, laundry detergent, +8000 ppm guanidine hydrochloride (4944 ppm guanidine). An excerpt: (§1) In examples 35 to 38 below, synergistic interaction between guanidine and antimicrobial substances with respect to microbial infestation was studied using an emulsion paint and a laundry detergent or cleaning composition by adding particular amounts of guanidine salts and isothiazolinones and examining their stability against microbial infestation: […] The laundry detergent was a heavy-duty laundry detergent without preservatives (pH 8.1), and the cleaning composition was an all-purpose detergent without preservatives (pH 7.6), each likewise made in the laboratory, without addition of the otherwise usual conventional preservatives. To each paint was added—individually and in combination—particular concentrations of guanidinium hydrochloride, benzisothiazolinone (BIT), and a mixture of chloromethylisothiazolinone (CIT) and methylisothiazolinone (MIT). The laundry detergent and the cleaning composition were admixed with particular concentrations of guanidinium hydrochloride and benzisothiazolinone (BIT). The resultant batches of the paint thus prepared were inoculated with a mixture of different bacteria species (bacteria mixture B); the batches of the laundry detergent and cleaning compositions thus prepared were inoculated with a yeast mixture. • Pichia manshurica DSM 12249 • Rhodotorula mucilaginosa DSM 12248 • Candida boidinii DSM 13622 • Candida albicans DSM 1386 […] Further steps for establishment of a cell count of the inoculum suspension of 10^8/ml were effected analogously to the production of the bacteria suspension. […] The streaked agar plates were then incubated at 30° C. for 48 hours (bacteria) or at 25° C. for 72 hours (yeasts). After incubation, the bacterial or yeast colonies that have grown on the agar plates were visually evaluated and quantified according to the following scheme: [table]

The test system of assay [2] is bacteria mixture A. Briefly: Emulsion paint inoculated three times with bacteria mixture A, live bacteria count CFU/g. The conditions noted are these: for CFU/g after inoculation: emulsion paint, 7 d. From the text: In example 34, the synergistic interaction between guanidine and a zinc compound (zinc oxide) with respect to microbial infestation was examined in an emulsion paint by adding particular amounts of guanidine in the form of guanidine hydrochloride and a zinc compound in the form of zinc oxide, and tested for stability to microbial infestation. The paint tested was an emulsion paint based on styrene-acrylate binder (PVK 77%, pH 8.8) for indoor use, produced in the laboratory, without addition of the usual preservatives.
The samples were inoculated repeatedly, three times in total, with a bacterial cell suspension of the following composition (2% v/w).
• Alcaligenes faecalis NCIMB 13145 • Escherichia coli DSM 13631 • Burkholderia cepacia DSM 9241 • Staphylococcus aureus DSM 799 • Pseudomonas aeruginosa DSM 50071 • Pseudomonas putida DSM 13624
The cell suspension of the bacteria mixture A was produced by growing the individual bacteria at 30° C. for 24 h in liquid culture on a shaker. The growth medium used for the bacteria was Müller-Hinton liquid medium. After growing, the individual liquid cultures were centrifuged, and the cells were resuspended in physiological saline solution. In order to adjust the mixture to a total cell count of 10^9/ml, the individual bacteria suspensions, if necessary, were diluted accordingly before being combined with saline solution. The cell count of the inoculum was determined in each case by chamber counting.
After each inoculation and after incubation at 30° C. for 7 days, microbial infestation was evaluated in the samples by determining the live bacteria count per g of paint (colony-forming units, CFU/g). The CFU/g was determined each time by taking an aliquot (1 g) from the previously homogenized sample and running a serial decadic dilution series in physiological saline solution (0.9% NaCl) by streaking on tryptic soy agar, followed by incubation of the agar plates at 30° C. for 48 h.

The subject of assay [3] is yeast mixture. Briefly: All-purpose detergent inoculated once with yeast mixture, semiquantitative growth evaluation. Also noted: key: 0: No growth; Minimal growth, 1 to 10 colonies visible over the entire streak; 2: Light growth, maximum 100 colonies; Moderate growth, maximum 300 to 400 colonies; Uniform growth, >400 colonies, single colonies still clearly recognizable; 5: Heavy growth, too many colonies to count, but no growth over the entire streak; 6: Full growth, barely any single colonies still apparent, growth over the entire streak. The conditions noted are these: Example 38, all-purpose detergent, +8000 ppm guanidine hydrochloride (4944 ppm guanidine).
From the text: as §1

Assay [4] concerns Pseudomonas putida DSM 115323. Briefly: Minimum inhibitory concentrations and synergy index in Müller-Hinton broth. The protocol:
Test organisms used were Gram-negative bacterial species from the group of pseudomonads, Pseudomonas putida DSM 115323 and Pseudomonas spec. DSM 115322. For this purpose, mixtures with different concentrations of the respective active substances were prepared and tested for their effect on the pseudomonads. The test was run in Müller-Hinton broth MHB with a cell density of 10^6 microbes per ml. When organic acids are used as a combination partner with the guanidine, MHB was adjusted to pH 5.5.
The incubation was run in microplates at 30° C. for 48 hours. After 48 hours, the batches were evaluated for turbidity resulting from growth, and optical density was additionally determined photometrically. In this way, the minimum inhibitory concentrations (MICs) of the two actives were determined individually and in combination.
The calculation was done according to the standard method of F. C. Kull et al., Applied Microbiology, vol. 9 (1961), p. 538.
This involves calculating the synergy index (SI) by the following formula:
[formula] • Qa=concentration of component A in the A+B mixture • QA=concentration of component A as the sole biocide • Qb=concentration of component B in the A+B mixture • QB=concentration of component B as the sole biocide
If the synergy index is greater than 1, this means that there is antagonism. If the synergy index assumes the value 1, this means that the effect of the two biocides/compounds is additive. If the synergy index assumes a value of less than 1, this means that there is synergism between the two biocides/compounds.

Molecules are shown by their SMILES. Bounds are passed on as bounds.

In the case of `N=C(N)N` [guanidine], the Bacterial growth in assay [1] (Day 1) and in assay [1] (Day 3) was 6 throughout. Also, the CFU/g after inoculation in assay [2] (Guanidine hydrochloride 1000 ppm (618 ppm guanidine), 1. inoculation) is recorded as 8.7 × 10^5 CFU/g; in assay [2] (Guanidine hydrochloride 1000 ppm (618 ppm guanidine), 2. inoculation), >10^6 CFU/g; in assay [2] (Guanidine hydrochloride 1000 ppm (618 ppm guanidine), 3. inoculation) it was >10^6 CFU/g; in assay [2] (Guanidine hydrochloride 2500 ppm (1545 ppm guanidine), 1. inoculation) it was less than 100 CFU/g; in assay [2] (Guanidine hydrochloride 2500 ppm (1545 ppm guanidine), 2. inoculation), less than 100 CFU/g; in assay [2] (Guanidine hydrochloride 2500 ppm (1545 ppm guanidine), 3. inoculation), >10^6 CFU/g. Also, the CFU/g after inoculation in assay [2] (Guanidine hydrochloride 5000 ppm (3090 ppm guanidine), 1. inoculation) is on record as less than 100 CFU/g; in assay [2] (Guanidine hydrochloride 5000 ppm (3090 ppm guanidine), 2. inoculation) it was less than 100 CFU/g; in assay [2] (Guanidine hydrochloride 5000 ppm (3090 ppm guanidine), 3. inoculation), less than 100 CFU/g. The “QA: Concentration of guanidine as the sole agent that shows an endpoint” value was 3090 ppm in assay [2] (guanidine alone in emulsion paint, endpoint after 3 inoculations up to a maximum of 1000 CFU/g) and 6180 ppm in assay [4] (guanidine (added as guanidine hydrochloride) alone, 48 hours at 30° C.). The “Synergy index Qa/QA + Qb/QB” value in assay [2] (guanidine and zinc in emulsion paint, Qa, Qb) is given as 1.00; in assay [4] (guanidine and CIT, Qa, Qb) it was 1.00. The Yeast growth was 6 in assay [3] (Day 1) and 4 (Uniform growth, >400 colonies, single colonies still clearly recognizable) in assay [3] (Day 3).
